{
  "source": "patent US20100010219A1",
  "about": "“METHOD FOR PRODUCING PYRROLIDINE COMPOUND” (JAPAN TOBACCO INC., priority 2006, published 2010)",
  "note": "Structures can show the parent of a compound that is named as a salt.",
  "data": [
    {"target": "T1, human HSD-1 (recombinant HSD-1) (Homo sapiens, UniProt P28845)", "T1 construct": "made in house", "T1 sequence (P28845 whole entry)": "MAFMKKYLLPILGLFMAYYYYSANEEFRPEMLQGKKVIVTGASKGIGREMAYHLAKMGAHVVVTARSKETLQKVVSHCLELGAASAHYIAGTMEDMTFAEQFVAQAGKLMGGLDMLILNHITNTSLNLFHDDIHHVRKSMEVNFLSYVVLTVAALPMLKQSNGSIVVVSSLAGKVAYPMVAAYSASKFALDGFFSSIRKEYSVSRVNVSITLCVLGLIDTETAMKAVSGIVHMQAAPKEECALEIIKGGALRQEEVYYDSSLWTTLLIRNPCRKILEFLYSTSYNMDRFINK", "assay": "HSD-1 activity inhibitory action in vitro (SPA, conversion of cortisone to cortisol)", "type": "biochemical", "conditions": "not given", "units": {"IC50": "nM"}, "values": [
      {"smiles": "O=C1CCN(C(=O)N2CCC(n3ncc(C(=O)N4CC[C@@H](c5ccccc5C(F)(F)F)C4)c3C3CC3)CC2)CC1", "note": "[Example 44, 1-{5-cyclopropyl-1-[1-(4-oxopiperidine-1-carbonyl)piperidin-4-yl]-1H-pyrazole-4-carbonyl}-[(S)-3-(2-trifluoromethylphenyl)]pyrrolidine]", "IC50": "< 30"}
    ]},
    {"target": "T1, human HSD-1 (recombinant HSD-1)", "assay": "HSD-1 activity inhibitory action in vitro (SPA, conversion of cortisone to cortisol)", "type": "biochemical", "conditions": "recombinant human HSD-1 expressed using baculovirus system; 10 nM 3H cortisone, 500 μM NADPH; room temperature 90 to 120 min; read-out: hHSD1 (IC50 (nM))", "units": {"IC50": "nM"}, "values": [
      {"smiles": "Nc1ccc(N2CCC(n3ncc(C(=O)N4CCC(c5ccccc5C(F)(F)F)C4)c3C3CC3)CC2)cc1", "note": "(stereo not shown) [Example 168, 1-{1-[1-(4-aminophenyl)piperidin-4-yl]-5-cyclopropyl-1H-pyrazole-4-carbonyl}-3-(2-trifluoromethylphenyl)pyrrolidine]", "IC50": "< 30"},
      {"smiles": "O=C(c1cnn(C2CCN(c3n[nH]c(CO)n3)CC2)c1C1CC1)N1CC[C@@H](c2ccccc2C(F)(F)F)C1", "note": "[Example 119, 1-{5-cyclopropyl-1-[1-(5-hydroxymethyl-4H-[1,2,4]triazol-3-yl)piperidin-4-yl]-1H-pyrazole-4-carbonyl}-[(S)-3-(2-trifluoromethylphenyl)]pyrrolidine hydrochloride]", "IC50": "< 30"},
      {"smiles": "O=C(N[C@H](CO)Cc1ccccc1)N1CCC(n2ncc(C(=O)N3CC[C@@H](c4ccccc4C(F)(F)F)C3)c2C2CC2)CC1", "note": "[Example 50, 1-(1-{1-[(S)-1-benzyl-2-hydroxyethylcarbamoyl]piperidin-4-yl}-5-cyclopropyl-1H-pyrazole-4-carbonyl)-[(S)-3-(2-trifluoromethylphenyl)]pyrrolidine]", "IC50": "< 30"},
      {"smiles": "CC(C)[C@@H](CO)NC(=O)N1CCC(n2ncc(C(=O)N3CC[C@@H](c4ccccc4C(F)(F)F)C3)c2C2CC2)CC1", "note": "[Example 49, 1-(5-cyclopropyl-1-{1-[(S)-1-hydroxymethyl-2-methylpropylcarbamoyl]piperidin-4-yl}-1H-pyrazole-4-carbonyl)-[(S)-3-(2-trifluoromethylphenyl)]pyrrolidine]", "IC50": "< 30"},
      {"smiles": "CC(C)(CO)NC(=O)N1CCC(n2ncc(C(=O)N3CC[C@@H](c4ccccc4C(F)(F)F)C3)c2C2CC2)CC1", "note": "[Example 9, 1-{5-cyclopropyl-1-[1-(2-hydroxy-1,1-dimethylethylcarbamoyl)piperidin-4-yl]-1H-pyrazole-4-carbonyl}-[(S)-3-(2-trifluoromethylphenyl)]pyrrolidine]", "IC50": "< 30"},
      {"smiles": "O=C(Nc1ccccc1O)N1CCC(n2ncc(C(=O)N3CC[C@@H](c4ccccc4C(F)(F)F)C3)c2C2CC2)CC1", "note": "[Example 53, 1-{5-cyclopropyl-1-[1-(2-hydroxyphenylcarbamoyl)piperidin-4-yl]-1H-pyrazole-4-carbonyl}-[(S)-3-(2-trifluoromethylphenyl)]pyrrolidine]", "IC50": "< 30"},
      {"smiles": "COC(=O)c1ccc(N2CCC(n3ncc(C(=O)N4CCC(c5ccccc5C(F)(F)F)C4)c3C3CC3)CC2)nc1", "note": "(stereo not shown) [Example 178, methyl 6-(4-{5-cyclopropyl-4-[3-(2-trifluoromethylphenyl)pyrrolidine-1-carbonyl]pyrazol-1-yl}piperidin-1-yl)nicotinate]", "IC50": "< 30"},
      {"smiles": "O=C(Nc1ccccc1F)N1CCC(n2ncc(C(=O)N3CCC(c4cccnc4)C3)c2C2CCCCC2)CC1", "note": "(stereo not shown) [Example 139, 1-{5-cyclohexyl-1-[1-(2-fluorophenylcarbamoyl)piperidin-4-yl]-1H-pyrazole-4-carbonyl}-3-(pyridin-3-yl)pyrrolidine]", "IC50": "< 30"},
      {"smiles": "CC(C)C[C@@H](CO)NC(=O)N1CCC(n2ncc(C(=O)N3CC[C@@H](c4ccccc4C(F)(F)F)C3)c2C2CC2)CC1", "note": "[Example 52, 1-(5-cyclopropyl-1-{1-[(S)-1-hydroxymethyl-3-methylbutylcarbamoyl]piperidin-4-yl}-1H-pyrazole-4-carbonyl)-[(S)-3-(2-trifluoromethylphenyl)]pyrrolidine]", "IC50": "< 30"},
      {"smiles": "NC(=O)CCN1CCC(n2ncc(C(=O)N3CC[C@@H](c4ccccc4C(F)(F)F)C3)c2C2CC2)CC1", "note": "[Example 97, 1-{1-[1-(2-carbamoylethyl)piperidin-4-yl]-5-cyclopropyl-1H-pyrazole-4-carbonyl}-[(S)-3-(2-trifluoromethylphenyl)]pyrrolidine hydrochloride]", "IC50": "< 30"},
      {"smiles": "O=C(Nc1ccccc1F)N1CCC(n2ncc(C(=O)N3CC[C@@H](c4ccccc4C(F)(F)F)C3)c2C2CC2)CC1", "note": "[Example 124, 1-{5-cyclopropyl-1-[1-(2-fluorophenylcarbamoyl)piperidin-4-yl]-1H-pyrazole-4-carbonyl}-[(S)-3-(2-trifluoromethylphenyl)]pyrrolidine]", "IC50": "< 30"},
      {"smiles": "O=C(CO)N1CCC(n2ncc(C(=O)N3CC[C@@H](c4ccccc4C(F)(F)F)C3)c2C2CC2)CC1", "note": "[Example 65, 1-{5-cyclopropyl-1-[1-(2-hydroxyacetyl)piperidin-4-yl]-1H-pyrazole-4-carbonyl}-[(S)-3-(2-trifluoromethylphenyl)]pyrrolidine]", "IC50": "< 30"},
      {"smiles": "O=C(c1cnn(C2CCN(C(=O)N3CCC[C@@H](O)C3)CC2)c1C1CC1)N1CC[C@@H](c2ccccc2C(F)(F)F)C1", "note": "[Example 32, 1-(5-cyclopropyl-1-{1-[(R)-3-hydroxypiperidine-1-carbonyl]piperidin-4-yl}-1H-pyrazole-4-carbonyl)-[(S)-3-(2-trifluoromethylphenyl)]pyrrolidine]", "IC50": "< 30"},
      {"smiles": "O=C(NCCO)N1CCC(n2ncc(C(=O)N3CC[C@@H](c4ccccc4C(F)(F)F)C3)c2C2CC2)CC1", "note": "[Example 8, 1-{5-cyclopropyl-1-[1-(2-hydroxyethylcarbamoyl)piperidin-4-yl]-1H-pyrazole-4-carbonyl}-[(S)-3-(2-trifluoromethylphenyl)]pyrrolidine]", "IC50": "< 30"},
      {"smiles": "O=C(O)C(=O)N1CCC(n2ncc(C(=O)N3CCC(c4ccccc4C(F)(F)F)C3)c2C2CC2)CC1", "note": "(stereo not shown) [Example 158, 1-[5-cyclopropyl-1-(1-oxalylpiperidin-4-yl)-1H-pyrazole-4-carbonyl]-3-(2-trifluoromethylphenyl)pyrrolidine]", "IC50": "< 30"},
      {"smiles": "O=C(Nc1ccccc1F)N1CCC(n2ncc(C(=O)N3CCC(c4cccnc4Cl)C3)c2C2CC2)CC1", "note": "(stereo not shown) [Example 137, 3-(2-chloropyridin-3-yl)-1-{5-cyclopropyl-1-[1-(2-fluorophenylcarbamoyl)piperidin-4-yl]-1H-pyrazole-4-carbonyl}pyrrolidine]", "IC50": "< 30"},
      {"smiles": "O=C(c1cnn(C2CCN(C(=O)C3(c4ccc(F)cc4)CC3)CC2)c1C1CC1)N1CC[C@@H](c2ccccc2C(F)(F)F)C1", "note": "[Example 66, 1-(5-cyclopropyl-1-{1-[1-(4-fluorophenyl)cyclopropanecarbonyl]piperidin-4-yl}-1H-pyrazole-4-carbonyl)-[(S)-3-(2-trifluoromethylphenyl)]pyrrolidine]", "IC50": "< 30"},
      {"smiles": "CC(C)ONC(=O)N1CCC(n2ncc(C(=O)N3CCC(c4ccccc4C(F)(F)F)C3)c2C2(C)CC2)CC1", "note": "(stereo not shown) [Example 146, 1-{1-[1-(isopropoxycarbamoyl)piperidin-4-yl]-5-(1-methylcyclopropyl)-1H-pyrazole-4-carbonyl}-3-(2-trifluoromethylphenyl)pyrrolidine]", "IC50": "< 30"},
      {"smiles": "O=C(O)c1ccc(N2CCC(n3ncc(C(=O)N4CCC(c5ccccc5C(F)(F)F)C4)c3C3CC3)CC2)s1", "note": "(stereo not shown) [Example 115, 5-(4-{5-cyclopropyl-4-[3-(2-trifluoromethylphenyl)pyrrolidine-1-carbonyl]pyrazol-1-yl}piperidin-1-yl)thiophene-2-carboxylic acid]", "IC50": "< 30"},
      {"smiles": "CC1(c2c(C(=O)N3CCC(CO)(c4cc(F)cc(F)c4)C3)cnn2C2CCN(c3ncccn3)CC2)CC1", "note": "(stereo not shown) [Example 186, 3-(3,5-difluorophenyl)-3-hydroxymethyl-1-{5-(1-methylcyclopropyl)-1-[1-(pyrimidin-2-yl)piperidin-4-yl]-1H-pyrazole-4-carbonyl}pyrrolidine hydrochloride]", "IC50": "< 30"},
      {"smiles": "O=C(OCCN1CCCCC1)N1CCC(n2ncc(C(=O)N3CC[C@@H](c4ccccc4C(F)(F)F)C3)c2C2CC2)CC1", "note": "[Example 60, 1-{5-cyclopropyl-1-[1-(2-piperidin-1-yl-ethoxycarbonyl)piperidin-4-yl]-1H-pyrazole-4-carbonyl}-[(S)-3-(2-trifluoromethylphenyl)]pyrrolidine hydrochloride]", "IC50": "< 30"},
      {"smiles": "CC1(c2c(C(=O)N3CCC(c4cccnc4)C3)cnn2C2CCN(C(=O)N3CCCCc4ccccc43)CC2)CC1", "note": "(stereo not shown) [Example 151, 1-{5-(1-methylcyclopropyl)-1-[1-(2,3,4,5-tetrahydrobenzo[b]azepine-1-carbonyl)piperidin-4-yl]-1H-pyrazole-4-carbonyl}-3-(pyridin-3-yl)pyrrolidine]", "IC50": "< 30"},
      {"smiles": "CN(C)C(=O)CN1CCC(n2ncc(C(=O)N3CC[C@@H](c4ccccc4C(F)(F)F)C3)c2C2CC2)CC1", "note": "[Example 100, 1-[5-cyclopropyl-1-(1-dimethylcarbamoylmethylpiperidin-4-yl)-1H-pyrazole-4-carbonyl]-[(S)-3-(2-trifluoromethylphenyl)]pyrrolidine hydrochloride]", "IC50": "< 30"},
      {"smiles": "O=C(c1cnn(C2CCN(C(=O)N3CCC(F)(F)CC3)CC2)c1C1CC1)N1CC[C@@H](c2ccccc2C(F)(F)F)C1", "note": "[Example 18, 1-{5-cyclopropyl-1-[1-(4,4-difluoropiperidine-1-carbonyl)piperidin-4-yl]-1H-pyrazole-4-carbonyl}-[(S)-3-(2-trifluoromethylphenyl)]pyrrolidine]", "IC50": "< 30"},
      {"smiles": "COc1ccnc(N2CCC(n3ncc(C(=O)N4CCC(CO)(c5ccccc5)C4)c3C3(C)CC3)CC2)n1", "note": "(stereo not shown) [Example 185, 3-hydroxymethyl-1-{1-[1-(4-methoxypyrimidin-2-yl)piperidin-4-yl]-5-(1-methylcyclopropyl)-1H-pyrazole-4-carbonyl}-3-phenylpyrrolidine hydrochloride]", "IC50": "< 30"},
      {"smiles": "O=C(Nc1ccc(Cl)nc1Cl)N1CCC(n2ncc(C(=O)N3CCC(c4ccccc4C(F)(F)F)C3)c2C2CC2)CC1", "note": "(stereo not shown) [Example 150, 1-{5-cyclopropyl-1-[1-(2,6-dichloropyridin-3-ylcarbamoyl)piperidin-4-yl]-1H-pyrazole-4-carbonyl}-3-(2-trifluoromethylphenyl)pyrrolidine]", "IC50": "< 30"},
      {"smiles": "O=C(c1cnn(C2CCN(C(=O)N3CCS(=O)(=O)CC3)CC2)c1C1CC1)N1CC[C@@H](c2ccccc2C(F)(F)F)C1", "note": "[Example 12, 1-{5-cyclopropyl-1-[1-(1,1-dioxothiomorpholine-4-carbonyl)piperidin-4-yl]-1H-pyrazole-4-carbonyl}-[(S)-3-(2-trifluoromethylphenyl)]pyrrolidine]", "IC50": "< 30"}
    ]}
  ]
}
